Columns and labels:
[1] = biological target: AII receptor; assay: Ligand-receptor binding assay, displacement of [125I]AII from rat adrenal cortex particulate fraction; settings: 0.05 nM [125I]AII, 1 h incubation, read-out: Angiotensin II Receptor Binding IC50
Protocol: Angiotensin-II (AII) produces numerous biological responses (e.g. vasoconstriction) through stimulation of its receptors on cell membranes. […] After a 1 h incubation the reaction was terminated by addition of cold assay buffer. The bound and free radioactivity were rapidly separated through glass-fiber filters, and the trapped radioactivity was quantitated by scintillation counting.

[2] = system: Renal Hypertensive Rats; assay: Antihypertensive effect in awake renal hypertensive rats (ligation of left renal artery); type: in vivo, rat; settings: for ED30: Rattus norvegicus, oral, read-out: Oral Antihypertensive Effects in Renal Hypertensive Rats ED30
From the text: This procedure increases blood pressure by increasing renin production with consequent elevation of AII levels. […] Arterial blood pressure is continuously measured directly through a carotid artery cannula and recorded using a pressure transducer and a polygraph. Blood pressure levels after treatment are compared to pretreatment levels to determine the antihypertensive effects of the compounds.

Compound | IC50 [1] [nM] | ED30 [2] [mg/kg] | Oral Antihypertensive Effects in Renal Hypertensive Rats ED30 [2] [mg/kg]
CCCc1nc(CC)c(C(=O)OCN(C)C)n1Cc1ccc(-c2ccccc2-c2nnn[nH]2)cc1 [Example 2, (N,N-Dimethylamino)methyl 4-ethyl-2-propyl-1-[[2'-(tetrazol-5-yl)biphenyl-4-yl]methyl]imidazole-5-carboxylate] | 100 |  | 
CCCc1nc(CC)c(C(=O)OCOC(=O)C(C)(C)C)n1Cc1ccc(-c2ccccc2-c2nnn[nH]2)cc1 [Example 5, Trimethylacetoxymethyl 4-ethyl-2-propyl-1-[[2'-(tetrazol-5-yl)biphenyl-4-yl]methyl]imidazole-5-carboxylate] | 2 | 0.03 | 
CCCc1nc(CC)c(C(=O)OCOC(=O)OC)n1Cc1ccc(-c2ccccc2-c2nn[nH]n2)cc1 [Example 7] | 3 |  | 
CCCc1nc(CC)c(C(=O)OCOC(=O)OC(C)(C)C)n1Cc1ccc(-c2ccccc2-c2nnn[nH]2)cc1 [Example 9, t-Butoxycarbonyloxymethyl 4-ethyl-2-propyl-1-[[2'-(tetrazol-5-yl)biphenyl-4-yl]methyl]imidazole-5-carboxylate] | 6 | 0.02 | 
CCCc1nc(CC)c(C(=O)OC(C)OC(=O)OC)n1Cc1ccc(-c2ccccc2-c2nn[nH]n2)cc1 (stereo not drawn) [Example 11] | 4 | 0.02 | 
CCCc1nc(CC)c(C(=O)OC(C)OC(=O)OC(C)(C)C)n1Cc1ccc(-c2ccccc2-c2nn[nH]n2)cc1 (stereo not drawn) [Example 12] | 5 | 0.3 | 
CCCc1nc(CC)c(C(=O)OCc2oc(=O)oc2C)n1Cc1ccc(-c2ccccc2-c2nn[nH]n2)cc1 [Example 13, 1,3-Dioxa-5-methyl-cyclopenten-2-one-4-ylmethyl 4-ethyl-2-propyl-1-[[2'-(tetrazol-5-yl)biphenyl-4-yl]methyl]imidazole-5-carboxylate] | 3 | 0.1 | 
CCCc1nc(CC)c(C(=O)OCc2oc(=O)oc2C(C)(C)C)n1Cc1ccc(-c2ccccc2-c2nn[nH]n2)cc1 [Example 14, (5-(1.1-Dimethylethyl)-1.3-dioxa-cyclopenten-2-one-4-yl)methyl 4-ethyl-2-propyl-1-[[2'-(tetrazol-5-yl)biphenyl-4-yl)methyl]imidazole-5-carboxylate] | 3 | 0.3 | 
CCCc1nc(CC)c(C(=O)OCc2oc(=O)oc2-c2ccccc2)n1Cc1ccc(-c2ccccc2-c2nn[nH]n2)cc1 [Example 15] | 6 | 0.3 | 
Methoxydimethylacetoxymethyl 4-ethyl-2-propyl-1-[[2'-(tetrazol-5-yl)biphenyl-4-yl]methyl]imidazole-5-carboxylate [Example 8] |  |  | 0.03
Trimethylacetoxymethyl 4-ethyl-2-propyl-1-[[2'-(N-trimethylacetoxymethyl(tetrazol-5-yl))biphenyl- 4-yl]methyl]imidazole-5-carboxylate [Example 6] | 20 |  | 

Reference: patent publication US5310929A, “Prodrugs of imidazole carboxylic acids as angiotensin II receptor antagonists” (E. I. Du Pont de Nemours and Company, priority 1992, dated 1994)
